{"source": "patent US20040115181A1", "about": "“Composition for transmucosal adminstration containing conenzyme q as the active ingredient” (priority 2001, published 2004)", "origin": "cited, not measured here", "test_system": "rats", "settings": "continuously administered for 52 weeks, 1.2 g/kg/day, J. Agric. Food Chem., 1999, Vol. 47, P3756-3763", "data": [{"smiles": "COC1=C(OC)C(=O)C(C/C=C(\\C)CC/C=C(\\C)CC/C=C(\\C)CC/C=C(\\C)CC/C=C(\\C)CC/C=C(\\C)CC/C=C(\\C)CC/C=C(\\C)CC/C=C(\\C)CCC=C(C)C)=C(C)C1=O", "note": "[coenzyme Q10]", "values": [{"measurement": "Toxicity in safety test", "value": "no toxicity is observed"}]}]}
